Test results: article PMC3237458, “PEGylation Potentiates the Effectiveness of an Antagonistic Peptide That Targets the EphB4 Receptor with Nanomolar Affinity” (PLoS ONE, 2011)
Entries after “also recorded” stand apart in the source; their conditions may differ. Square brackets hold non-standard residues; d marks the D form. Peptide text beside a SMILES is read from it. * marks the point of attachment. Biotin = O=C1N[C@H]2[C@H](CS[C@H]2CCCCC(=O)*)N1; Ahx = NCCCCCC(=O)O

Key:
[1] = Peptide stability in cell culture medium / conditioned medium (ELISA of functional peptide); assay type: in vitro ADME
Experimental: PC3 prostate cancer cells were grown in RPMI 1640 medium (Mediatech, Inc, Herndon, VA) with 10% fetal bovine serum (FBS) (Hyclone, Logan, UT), penicillin and streptomycin. B16-F10-luc-G5 melanoma cells (Caliper Life Sciences, Hopkinton, MA) were grown in Eagle's MEM with Earle's Balanced Salts (EBSS) (Hyclone, Logan, UT) supplemented with 10% FBS, non essential amino acids (Hyclone, Logan, UT), L-glutamine, sodium pyruvate (Hyclone, Logan, UT), MEM vitamin solution (Life Technologies-Invitrogen), penicillin and streptomycin (Omega Scientific, Tarzana, CA). HUVECs (Cascade Biologics, Portland, OG) were grown in Medium 200 supplemented with low serum growth supplements (Cascade Biologics), 10% FBS, penicillin and streptomycin, and fungizone (Omega Scientific, Tarzana, CA). Rat EMCs were grown in DMEM (Mediatech, Inc, Herndon, VA) supplemented with 10% FBS, penicillin and streptomycin. The different modified forms of TNYL-RAW at a concentration of 25 nM were added to fresh medium or culture medium conditioned by the cells for 1–4 days. The culture medium was collected after different time periods and diluted 1∶10 in ELISA wells. The amount of intact TNYL-RAW peptide remaining was measured by using the ELISA assays described above for measurement of binding affinity. In some experiments, the peptide was incubated at 37°C with PC3 cell conditioned medium collected from the cells in the absence or in the presence of protease inhibitors (10 µg/ml aprotinin, 5 µg/ml pepstatin, 10 µg/ml leupeptin and 0.75 mM or phenylmethylsulfonylfluoride (PMSF)).

[2] = molecular target: T1, EphB4 (Mus musculus, UniProt P54761); assay: Ephrin-B2-induced EphB4 tyrosine phosphorylation in B16 melanoma cells (immunoprecipitation/immunoblot); assay type: cell-based; conditions: 24 hours pretreatment, Figure 4A
T1 construct: tyrosine phosphorylation of endogenous EphB4 expressed in B16 melanoma cells; host or cells: B16-F10-luc-G5 melanoma cells
T1 sequence (P54761 16-987): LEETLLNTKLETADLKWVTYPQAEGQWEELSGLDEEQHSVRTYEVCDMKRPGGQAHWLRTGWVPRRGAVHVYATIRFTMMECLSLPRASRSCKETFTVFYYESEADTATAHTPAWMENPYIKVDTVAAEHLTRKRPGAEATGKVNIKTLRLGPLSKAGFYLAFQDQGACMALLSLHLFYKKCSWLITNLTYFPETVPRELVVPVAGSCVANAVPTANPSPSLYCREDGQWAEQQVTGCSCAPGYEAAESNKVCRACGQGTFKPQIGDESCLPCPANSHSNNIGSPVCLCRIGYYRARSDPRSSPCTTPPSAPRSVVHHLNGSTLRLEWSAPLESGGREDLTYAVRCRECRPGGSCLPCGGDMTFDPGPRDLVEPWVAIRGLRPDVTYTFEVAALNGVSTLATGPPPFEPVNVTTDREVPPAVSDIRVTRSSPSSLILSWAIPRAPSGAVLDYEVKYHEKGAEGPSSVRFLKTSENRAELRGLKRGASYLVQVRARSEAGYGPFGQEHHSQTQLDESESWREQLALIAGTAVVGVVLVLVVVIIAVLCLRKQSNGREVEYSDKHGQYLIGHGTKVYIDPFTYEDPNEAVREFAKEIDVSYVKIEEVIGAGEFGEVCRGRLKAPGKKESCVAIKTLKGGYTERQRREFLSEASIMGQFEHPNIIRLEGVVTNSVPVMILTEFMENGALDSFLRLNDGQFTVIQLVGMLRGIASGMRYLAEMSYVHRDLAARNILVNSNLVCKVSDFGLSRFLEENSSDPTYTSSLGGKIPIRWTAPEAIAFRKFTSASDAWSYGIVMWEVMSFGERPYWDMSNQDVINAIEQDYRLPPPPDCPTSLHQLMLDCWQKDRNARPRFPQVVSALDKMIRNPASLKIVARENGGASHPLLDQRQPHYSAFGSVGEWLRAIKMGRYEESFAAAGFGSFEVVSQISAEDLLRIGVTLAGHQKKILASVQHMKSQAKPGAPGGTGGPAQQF
Experimental: B16-F10-luc-G5 melanoma cells, which endogenously express EphB4, were serum starved for 1–3 hours in Eagle's MEM/EBSS containing 0.5% FBS and incubated for 15 min or 24 hours with different concentrations of PEG-TNYL-RAW. The cells were then stimulated for 20 min with 1.5 µg/ml ephrin-B2 Fc, which had been preclustered with a 3 fold excess of an anti-Fc antibody, in the continued presence of the peptide. HUVECs, EMCs or a 1∶1 mixture of the two cell types were plated for 20 hours in complete medium in the presence of PEG or PEG-TNYL-RAW. Medium 200 was used for HUVECs and HUVECs and EMCs co-cultures, DMEM was used for EMCs. The cells were lysed in modified RIPA buffer (1% Triton X-100, 1% Na deoxycholate; 0.1% SDS; 20 mM Tris; 150 mM NaCl; 1 mM EDTA) containing 10 µM NaF, 1 µM sodium pervanadate and protease inhibitors. Protein concentrations were measured using the BCA protein assay kit (Pierce Biotechnology, Rockford, IL). For immunoprecipitations, cell lysates were incubated with 20 µg of an anti-EphB4 antibody made to a GST fusion protein of the EphB4 SAM domain and carboxy-terminal tail immobilized on GammaBind Sepharose beads (GE Healthcare Life Sciences). […]

[3] = tested on: HUVECs and EMCs; assay: Capillary-like tube formation on Matrigel; assay type: cell-based; conditions: HUVECs and EMCs 2:1, Matrigel, 15 hours; TNYL-RAW tested up to 20 µM; Figure 6
Experimental: An EMC clone expressing EGFP was generated by transducing EMCs (a kind gift from H. Eid) with a lentiviral construct followed by clonal selection. To generate capillary-like tubes, HUVECs (2.8×10^4), EMCs (7.5×10^4) or a mixture of the two cell types (2.8×10^4 HUVECs and 1.4×10^4 EMCs) were grown for 5 to 20 hours in 24-well tissue culture plates (Corning, Corning, NY) precoated with 80 µl Matrigel (BD Bioscience, San Jose, CA) in Medium 200 or DMEM complete culture medium containing PEG-TNYL-RAW or PEG control. In some experiments, mixed cultures were treated with TNYL-RAW or DMSO control. The cells were then fixed for 15 min in 4% formaldehyde in PBS and photographed under a fluorescence microscope. Tube length was quantified using ImageJ software.

Peptide loss in culture medium of other cell types ([1]; B16 melanoma cells, HUVECs, EMCs (Figure S1), C6 glioma cells and BPH1 prostate epithelial cells (data not shown), biotinylated TNYL-RAW, ELISA): Rapid TNYL-RAW loss | Half-life in PC3 cell culture medium ([1]; biotinylated TNYL-RAW with PC3 prostate cancer cells grown in the same medium for several days, depends on cell density and time in medium, ELISA capture on EphB4 Fc, streptavidin-HRP, Figure 1A): less than an hour to several hours | Half-life with cells in fresh culture medium versus medium used for 3 days ([1]; biotinylated TNYL-RAW, PC3 cells, medium freshly replaced before adding peptide, ELISA, Figure 1A): had a longer half-life | Inhibitory activity on EphB4 phosphorylation after 24 hours of incubation with cells [2]: ineffective
SMILES: CC[C@H](C)[C@H](NC(=O)[C@@H]1CCCN1C(=O)CNC(=O)[C@H](CC(N)=O)NC(=O)[C@@H]1CCCN1C(=O)[C@H](CO)NC(=O)[C@H](Cc1ccccc1)NC(=O)[C@H](CC(C)C)NC(=O)[C@H](Cc1ccc(O)cc1)NC(=O)[C@H](CC(N)=O)NC(=O)[C@@H](N)[C@@H](C)O)C(=O)N[C@@H](C)C(=O)N[C@@H](CCCNC(=N)N)C(=O)N[C@@H](C)C(=O)N[C@@H](Cc1c[nH]c2ccccc12)C(=O)NCCCCCC(=O)N[C@@H](CCCCNC(=O)CCCC[C@@H]1SC[C@@H]2NC(=O)N[C@@H]21)C(N)=O [TNYL-RAW] (H-TNYLFSPNGPIARAW[Ahx]K(Biotin)-NH2; N-terminus and C-terminus assumed)
Peptide loss in PC3 cell conditioned medium with protease inhibitors ([1]; conditioned medium without cells, 37°C, aprotinin, leupeptin, pepstatin and PMSF, ELISA, Figure 1B): blocked by a mixture of protease inhibitors | Effect on capillary-like tube formation in co-cultures at different concentrations [3]: does not have significant effects; also recorded: does not have a significant effect
